Laboratory results taken from US20030186946A1, “Suppression of cytotoxic protein conformers” (priority 2002, published 2003).

Key:
[1] = biological target: T1, human amylin (Homo sapiens, UniProt P10997); test: Radiolabelled precipitation assay of amylin fibril formation; format: biochemical; design: Amylin is a 37-residue; C-terminally amidated peptide having a disulfide bridge between the cysteines at residues 2 and 7; purchased Bachem Calif; (Torrance, Calif.); host or cells: chemical synthesis; conditions: 200 μM compound
T1 sequence (P10997 34-70 limits assumed): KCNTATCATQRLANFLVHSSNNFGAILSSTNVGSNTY
Procedure: Radiolabelled Precipitation Assays. The precipitation of radiolabelled human and rat amylin fibrils was used as an independent method to monitor assembly of amylin fibrils in the presence or absence of potential inhibitors of amylin fibril formation. […] Incubation mixtures were then centrifuged at either 16,000×g or 100,000×g, for 20 min, and the amount of [^3H]-human amylin remaining in the supernatant after centrifugation was determined (Beckman LSW 3801 β-counter, USA). Results were expressed as percentages of precipitable counts per minute, relative to total radioactivity in the supernatant.
Incorporation of [^3H]-amylin into amylin fibrils was followed for 24 hours. Human amylin fibrils were precipitated by centrifugation at either 16,000×g (FIG. 7A) or at 100,000×g (FIG. 7B). Rat amylin (10 μM) in the presence of [^3H]-rat amylin was used as a non-fibril forming control (♦) (FIG. 7A). The results are shown as the percentage of precipitable radioactive amylin, relative to total radioactivity in the supernatant at each time point. Each data point represents the mean±s.e.m of three separate reactions.
The incorporation of radioactive monomeric amylin into the human amylin fibrils as they form, can be used to measure the rate at which amylin fibrils form in the presence or absence of a potential inhibitory drug. Amylin fibrils can be separated from solution by centrifugation and the amount of radioactive amylin precipitated in the amylin fibril pellet is then used as a measure of the amount of amylin fibrils present at that time.
Thioflavin-T, although not polycyclic, is widely used in fluorescent assays to measure amylin fibril formation. Incorporation of radioactivity into the pellet of an aliquot of the reaction mixture centrifuged at 16,000×g, for 20 minutes was monitored over the time periods indicated. Rat amylin (10 μM) with [^3H]-rat amylin added was used as a non fibril forming control (∘) in each experiment. The results are shown as the percentage of precipitable radioactive amyloid, relative to total radioactivity in the supernatant at each time point. Each data point represents the mean±s.e.m of three separate experiments.

[2] = biological target: T1, human amylin; conditions: 1200 μM compound (20-fold molar excess), 60 μM human amylin, 10 μM thioflavin-T, over 24 h (FIG. 3)
Procedure: Thioflavin-T binding fluorescent assays. The effects of various polycyclic compounds on islet amyloid formation were measured by fluorescence spectroscopy, using a SpectraMAX Gemini XS Fluorescence Spectrophotometer (Molecular Devices Corporation, Sunnyvale, Calif.). Excitation and emission maxima were set to 450 nm and 510 nm respectively using a cutoff filter at 495 nm. Thioflavin-T binds to amylin fibrils, but not to monomeric amylin (Goldsbury et al., (1999), J. Mol. Biol., 285:33-39). […] The rate of amylin fibril formation was determined by following thioflavin-T fluorescence in the presence or absence of the potential inhibitory drug. […] Background fluorescence by acridine and acridine orange in the absence of amylin was subtracted from the experimental results. The control preparation contained human amylin and thioflavin-T in the absence of drug. The rate of fluorescence enhancement under these conditions was used to compare amylin fibril formation in the absence and presence of the drug. All other experimental conditions were identical.
Tri-prolyl amylin and rat amylin with thioflavin-T were also used as additional controls.
Each data point represents the mean±s.e.m of three separate reactions.
Effect of chlorpromazine on enhancement of thioflavin-Tfluorescence by human amylin (FIG. 2). Chlorpromazine (700 μM) (π) was incubated in 10 mM tris p H 7.4, with monomeric human amylin (70 μM) in the presence of thioflavin-T (10 μM). The fluorescence of the reaction was monitored over 24 hours as described in the methods. […] Each data point represents the mean±s.e.m of three separate reactions.
Effect of selected polycylic compounds on enhancement of thioflavin-Tfluorescence by human amylin (FIG. 3). Acridine, acridine orange, neutral red and methylene blue are selected examples of fused tricyclic ring compounds. […] Compound structures are shown adjacent to the appropriate graph. […] Fluorescence was monitored over 24 h as described in the Methods. A preparation containing human amylin and thioflavin-T only (▪), was included as a comparison in the absence of drug. […] Each data point represents the mean±s.e.m of three independent experiments.

[3] = tested on: RINm5F cells
Procedure: Cell Culture and Cytotoxicity Assays. RINm5F cells were cultured in RPMI 1640 medium containing 10% fetal bovine serum, 290 μg/mL L-glutamine, 100 IU/mL penicillin and 100 μg/mL streptomycin. Cells were plated at a density of 15×1 cells per well, incubated for 48 h, rinsed with PBS and placed in fresh medium containing Congo red. Freshly prepared human amylin in Milli-Q water, was preincubated with Congo red for 30 min, then added to the cell culture medium to give a final concentration of 30 μM. Cells were treated for 22 h with human amylin in the presence or absence of 100 μM Congo red. Cell viability was determined by double-staining with calcein-AM and ethidium homodimer-1. Green fluorescence of live cells and red fluorescence marking nuclei of dead cells were simultaneously visualized using a Zeiss Axiovert S100 microscope equipped with a Zeiss filter set # 09. Photographs were taken at 400× magnification using a Zeiss AxioCam digital camera.
A. Representative fluorescence micrograph of RINm5F cells treated with 30 μM human amylin for 22 h and stained with calcein-AM and ethidium homodimer-1 to show live cells (green) and dead cells (red). […] B. A representative micrograph of RINm5F cells treated with 30 μM human amylin and 100 μM Congo red stained as above. […] The percentage of live cells was determined for cells treated for 22 h with vehicle; 30 μM human amylin; 30 μM human amylin in the presence of 100 μM Congo red; or 30 μM rat amylin. Experiments were repeated independently 10 times except for human amylin plus Congo red (A+CR) which was repeated five times. Error bars represent the s.e.m of live and dead cell counts over 6-12 fields per condition.

[4] = biological target: T1, human amylin; test: Electron microscopy of human amylin fibrils; format: biochemical; design: Amylin is a 37-residue; C-terminally amidated peptide having a disulfide bridge between the cysteines at residues 2 and 7; purchased Bachem Calif; (Torrance, Calif.); host or cells: chemical synthesis; conditions: 1200 μM compound, 60 μM human amylin, 10 mM tris pH 7.4, 24 h (FIG. 6)
Procedure: Electron Microscopy. […] Samples were removed at various time points and prepared for electron microscopy. Aliquots (8 μl) of the amylin fibril preparations were absorbed to glow-discharged carbon-coated collodion film on 200-mesh copper grids for 1 min. Grids were blotted, washed twice in droplets of deionised water and stained with 2% (w/v) uranyl acetate. Grids were examined in a Phillips Technai transmission electron microscope operated at 120 kV.
Samples were removed at various time points and prepared for electron microscopy according to the procedure described in the methods.
Electron Microscopy of human amylin fibrils in the presence and absence of quinacrine (FIG. 5). A 100 fold molar excess of quinacrine was incubated with human amylin. Samples were removed at various time points and prepared for electron microscopy according to the procedure described in the methods.
Electron Microscopy of human amylin fibrils in the presence and absence of selected polycyclic compounds (FIG. 6). […] Samples were removed and prepared for electron microscopy as described in the Methods. All experiments were performed in triplicate and the pictures above are representative of at least 6 photographs taken at each magnification.

Compound	level of precipitable amyloid ([1]; 10 μM human amylin, after 72 h) [%]	overall decrease in precipitable amyloid ([1]; 10 μM human amylin, after 72 h) [%]	enhancement of thioflavin-T fluorescence by human amylin [2]	intrinsic cytotoxicity of compound to RINm5F β cells [3]	morphology of human amylin fibrils (electron microscopy) [4]	effect on precipitable amyloid formation ([1]; 10 μM human amylin, 16,000×g (FIG. 8))
CN(C)c1ccc2cc3ccc(N(C)C)cc3nc2c1 [acridine orange]	50	30	no increase in thioflavin-T enhanced fluorescence	cytotoxic		
Cc1cc2nc3ccc(N(C)C)cc3nc2cc1N [neutral red]			no increase in thioflavin-T enhanced fluorescence	cytotoxic	still formed characteristic amylin fibrils	small but significant reduction
